The values below come from patent US6342601B1, “Compounds” (AstraZeneca AB, priority 1997, dated 2002).

Counter-ions that a name gives are not always drawn.

Turning to `CC(C)Cc1nn(C)c(=O)c2cc(C(O)c3cccnc3)sc12` (stereo not drawn) (as salt: hydrochloride) [Example 40, 2-[(1-Hydroxy-1-pyridin-3-yl)methyl]-5-methyl-7-(2-methylpropyl)thieno[2,3-d]pyridazin-4(5H)-one Hydrochloride], the melting point (as a rule, the temperature of the solid-liquid transition) was in the range of 154 to 156 °C.

Turning to `CC(C)Cc1nn(C)c(=O)c2cc(Cc3cnc4ccccc4c3)sc12` (as salt: hydrochloride) [Example 44, 5-Methyl-7-(2-methylpropyl)-2-(3-quinolinylmethyl)thieno[2,3-d]pyridazin-4(5H)-one Hydrochloride], the melting point was > 230 °C (dec.).

`CC(C)Cc1nn(C)c(=O)c2cn(Cc3cccc4ccccc34)cc12` [Example 1, 2,6-Dihydro-2-methyl-4-(2-methylpropyl)-6-(1-naphthalenylmethyl)-1H-pyrrolo[3,4-d]pyridazin-1-one] showed a melting point of 110 to 112 °C.

`COCCn1nc(CC(C)C)c2cn(Cc3cccc4ccccc34)cc2c1=O` [Example 2, 2,6-Dihydro-2-(2-methoxyethyl)-4-(2-methylpropyl)-6-(1-naphthalenylmethyl)-1H-pyrrolo[3,4-d]pyridazin-1-one] came in with a melting point of 96 to 98 °C.

As to `CC(C)Cc1nn(C)c(=O)c2c(SCCCC(=O)O)n(Cc3cccc4ccccc34)cc12` [Example 4, 4-{[2,6-Dihydro-2-methyl-4-(2-methylpropyl)-6-(1-naphthalenylmethyl)-1-oxo-1H-pyrrolo[3,4-d]pyridazin-7-yl]thio}butanoic Acid], the melting point is 167 °C.

As to `CC(C)Cc1nn(C)c(=O)c2c([S+]([O-])CCCO)n(Cc3cccc4ccccc34)cc12` (stereo not drawn) [Example 5 (A), 2,6-Dihydro-7-[(3-hydroxypropyl)sulfinyl]-2-methyl-4-(2-methylpropyl)-6-(1-naphthalenylmethyl)-1H-pyrrolo[3,4-d]pyridazin-1-one], the melting point lay within 164 to 166 °C.

In turn, `CC(C)Cc1nn(C)c(=O)c2cc(C(O)c3cccc4ccccc34)sc12` (stereo not drawn) [Example 6, 2-[1-Hydroxy-1-(1-naphthalenyl)methyl]-5-methyl-7-(2-methylpropyl)thieno[2,3-d]pyridazin-4(5H)-one] gave a melting point of 165 to 167 °C.

`CC(C)Cc1nn(C)c(=O)c2cc(C(=O)c3cccc4ccccc34)sc12` [Example 9, 5-Methyl-7-(2-methylpropyl)-2-(1-naphthalenylcarbonyl)thieno[2,3-d]pyridazin-4(5H)-one]: the melting point was found to be 121 °C.

`CC(C)Cc1nn(C)c(=O)c2c([S+]([O-])CCCO)c(Cc3cccc4ccccc34)sc12` (stereo not drawn) [Example 10, 3[(3-Hydroxypropyl)sulfinyl]-5-methyl-7-(2-methylpropyl)-2-(1-naphthalenylmethyl)thieno[2,3-d]pyridazin-4(5H)-one] had a melting point of 60 to 65 °C.

`CC(C)Cc1nn(C)c(=O)c2c(SCCCC(=O)O)c(Cc3cccc4ccccc34)sc12` [Example 11, 4-{[4,5-Dihydro-5-methyl-7-(2-methylpropyl)-2-(1-naphthalenylmethyl)-4-oxothieno[2,3-d]pyridazin-3-yl]thio}butanoic Acid] had a melting point of 154 to 156 °C.

In turn, `CC(C)Cc1nn(C)c(=O)c2c(S(=O)(=O)CCCO)c(Cc3cccc4ccccc34)sc12` [Example 13, 3-[(3-Hydroxypropyl)sulfonyl]-5-methyl-7-(2-methylpropyl)-2-(1-naphthalenylmethyl)thieno[2,3-d]pyridazin-4(5H)-one] showed a melting point of 160 to 163 °C.

As to `CC(C)Cc1nn(C)c(=O)c2cc(Cc3ccccc3)sc12` [Example 15, 5-Methyl-7-(2-methylpropyl)-2-phenylmethylthieno[2,3-d]pyridazin-4(5H)-one], the melting point fell in the range of 97 to 98 °C.

The molecule `CC(C)Cc1nn(C)c(=O)c2c(SCCCO)c(Cc3ccccc3)sc12` [Example 16, 3-[(3-Hydroxypropy)thio]-5-methyl-7-(2-methylpropyl)-2-phenylmethylthieno[2,3-d]pyridazin-4(5H)-one] gave a melting point of 60 to 65 °C.

As to `CC(C)Cc1nn(C)c(=O)c2c(S(=O)(=O)CCCO)c(Cc3ccccc3)sc12` [Example 17, 3-[(3-Hydroxypropyl)sulfonyl]-5-methyl-7-(2-methylpropyl)-2-phenylmethylthieno[2,3-d]pyridazin-4(5H)-one], the melting point fell in the range of 105 to 107 °C.

`CC(C)Cc1nn(C)c(=O)c2cn(Cc3ccccc3)cc12` [Example 18, 2,6-Dihydro-2-methyl-4-(2-methylpropyl)-6-phenylmethyl-1H-pyrrolo[3,4-d]pyridazin-1-one] showed a melting point of 104 °C.

`CC(C)Cc1nn(C)c(=O)c2c(Sc3ccccn3)n(Cc3ccccc3)cc12` [Example 19, 2,6-Dihydro-2-methyl-4-(2-methylpropyl)-6-phenylmethyl-7-(2-pyridinylthio)-1H-pyrrolo[3,4-d]pyridazin-1-one] yielded a melting point of 131 to 132 °C.

In turn, `CC(C)Cc1nn(C)c(=O)c2c(SCCCO)n(Cc3ccccc3)cc12` [Example 20, 2,6-Dihydro-7-[(3-hydroxypropyl)thio]-2-methyl-4-(2-methylpropyl)-6-phenylmethyl-1H-pyrrolo[3,4-d]pyridazin-1-one] showed a melting point of 91 to 92 °C.

In turn, `COc1cc(Cn2cc3c(CC(C)C)nn(C)c(=O)c3c2)cc(OC)c1OC` [Example 21, 2,6-Dihydro-2-methyl-4-(2-methylpropyl)-6-(3,4,5-trimethoxyphenyl)methyl-1H-pyrrolo[3,4-d]pyridazin-1-one] gave a melting point of 154.5 to 155 °C.

The molecule `CC(C)Nc1nn(C)c(=O)c2cn(Cc3cccc4ccccc34)cc12` [Example 22, 2,6-Dihydro-2-methyl-6-(1-naphthalenylmethyl)-4-(1-methylethyl)amino-1H-pyrrolo[3,4-d]pyridazin-1-one] had a melting point of 221 to 222 °C.

`CC(C)Cc1nn(C)c(=O)c2cn(Cc3ccncc3)cc12` [Example 23, 2,6-Dihydro-2-methyl-4-(2-methylpropyl)-6-(4-pyridinyl)methyl-1H-pyrrolo[3,4-d]pyridazin-1-one] came in with a melting point of 91 to 93 °C.

On to `CC(C)Cc1nn(C)c(=O)c2cn(Cc3cccc4ccccc34)nc12` [Example 32, 2,5-Dihydro-5-methyl-7-(2-methylpropyl)-2-(1-naphthalenylmethyl)-4H-pyrazolo[3,4-d]pyridazin-4-one], for which the melting point was 166 to 167 °C.

`CC(C)Cc1nn(C)c(=O)c2nn(Cc3cccc4ccccc34)cc12` [Example 33] had a melting point of 163 to 164 °C.

In turn, `CC(C)Cc1nn(C)c(=O)c2c(SCCCO)n(Cc3cccc4ccccc34)nc12` [Example 34, 2,5-Dihydro-3-[(3-hydoxypropyl)thio]-5-methyl-7-(2-methylpropyl)-2-(1-naphthalenylmethyl)-4H-pyrazolo[3,4-d]pyridazin-4-one] returned a melting point of 141 to 142 °C.

`CC(C)Cc1nn(C)c(=O)c2cc(C(O)c3cccc4ccccc34)oc12` (stereo not drawn) [Example 35, 2-[1-Hydroxy-1-(1-naphthalenyl)methyl]-5-methyl-7-(2-methylpropyl)furo[2,3-d]pyridazin-4(5H)one] gave a melting point of 110 to 112 °C.

In turn, `CC(C)Cc1nn(C)c(=O)c2cc(Cc3cccc4ccccc34)oc12` [Example 36, 5-Methyl-7-(2-methylpropyl)-2-(1-naphthalenylmethyl)furo[2,3-d]pyridazin-4(5H)one] showed a melting point of 73 to 75 °C.

With `CC(C)Cc1nn(C)c(=O)c2cc(C(O)c3cccc(C#N)c3)oc12` (stereo not drawn) [Example 37, 2-[1-Hydroxy-1-(3-cyanophenyl)methyl]-5-methyl-7-(2-methylpropyl)furo[2,3-d]pyridazin4(5H)one], the melting point was in the range of 106 to 108 °C.

For the molecule `CC(C)Cc1nn(C)c(=O)c2cc(Cc3cccc(C#N)c3)oc12` [Example 38, 2-(3-Cyanophenyl)methyl-5-methyl-7-(2-methylpropyl)furo[2,3-d]pyridazin-4(5H)one], the melting point is 76 to 78 °C.

Molecule `CC(C)Cc1nn(C)c(=O)c2cc(Cc3ccccc3C(F)(F)F)sc12` [Example 39, 2-(2-Trifluoromethylphenyl)methyl-5-methyl-7-(2-methylpropyl)thieno[2,3-d]pyridazin-4(5H)-one] showed a melting point of 112 to 114 °C.

`CC(C)Cc1nn(C)c(=O)c2cc(Cc3cccnc3)sc12` [Example 41, 5Methyl-7-(2-methylpropyl)-2-(3-pyridinylmethyl)thieno[2,3-d]pyridazin-4(5H)-one] came in with a melting point of 118 to 119 °C.

Molecule `CC(C)Cc1nn(C)c(=O)c2cc(Cc3c(F)cccc3Cl)sc12` [Example 42, 2-(2-Chloro-6-fluorophenyl)methyl-5-methyl-7-(2-methylpropyl)thieno[2,3-d]pyridazin-4(5H)-one] returned a melting point of 85 to 86 °C.
